Assay: Stability constants of Fe3+ chelates by spectrophotometric titration
Format: physicochemical
Settings: for Stability constant, L + H^+ + Fe^3+ -> FeHL / Stability constant, L + Fe^3+ -> FeL / Stability constant, L + OH^- + Fe^3+ -> FeOHL: chelant agent:Fe^3+ 1:1, I=0.10M (NaCl), titration with 0.1 M NaOH pH 2.7 to 12.0, absorbance at 480 nm; for Stability constant, L + H^+ + Fe^3+ -> FeHL: FeHL predominant at pH <4.0; for Stability constant, L + Fe^3+ -> FeL: FeL predominant at pH 4 to 6.5; for Stability constant, L + OH^- + Fe^3+ -> FeOHL: FeOHL predominant at pH >6.5
Method: Stability constant of the Fe^3+ chelate compound of Example 4 (CRENEAHA) were determined spectrophotometrically by titration of a 2.22·10^−4 M (12.5 mg/L) and I=0.10M (NaCl) with 0.1 M NaOH from a pH of 2.7 to a pH of 12.0 and measuring the absorbance variation at 480 nm.
Stability constant of the Fe^3+ chelate compound of Example 2 (CREMEAHA) were determined spectrophotometrically by titration of a […] (12.5 mg/L) and I=0.10M (NaCl) with 0.1 M NaOH from a pH of 2.7 to a pH of 12.0 and measuring the absorbance variation at 480 nm.
Stability constants were determined minimizing the difference between calculated absorbance and experimental absorbance by varying the stability constants of Fe^3+. Every assay was repeated four times. The stability constant value for each compound is not dependent on the concentration of the solution used to carry out the spectrophotometric titration.

Row | Stability constant, L + H^+ + Fe^3+ -> FeHL | Stability constant, L + Fe^3+ -> FeL | Stability constant, L + OH^- + Fe^3+ -> FeOHL | Stability of the Fe^3+ chelate compared with the Fe^3+ chelate of Example 2 (CREMEAHA) (particularly at high pH) | Compound
1 | 33.9 | 28.6 | 21.2 |  | Cc1ccc(O)c(C(NCCO)C(=O)O)c1 (stereo not shown) [CREMEAHA]
2 | 37.5 | 33.4 | 26.9 | better stability | Cc1ccc(O)c(C(NCCNCCO)C(=O)O)c1 (stereo not shown) [CRENEAHA]
